Test results reported in patent EP4703358A1, “BENZO SIX-MEMBERED HETEROCYCLIC GSPT1 PROTEIN DEGRADATION AGENT AND USE THEREOF” (China Pharmaceutical University, priority 2023, dated 2024).

Assays:
KG-1 cells = assay: Antiproliferative activity against KG-1 cells (CCK8); format: cell-based; settings: Homo sapiens, 72 hours
Description: KG-1 cells in the logarithmic growth phase were diluted in a culture medium (RPMI + 10% FBS) and plated onto 96-well plates at 5000 cells/well, and the plates were incubated in an incubator at 37 °C with 5% CO2 for 24 hours. 10 mM stock solutions of the test compounds of the present disclosure in DMSO were prepared and diluted with the culture medium to set 9 concentration gradients. Three replicate wells were set for each concentration. After compound addition, the plates were incubated in an incubator at 37 °C with 5% CO2 for 72 hours. The cell proliferation was assessed using the CCK8 method. The cell growth inhibition IC50 values of the compounds were determined using an enzyme labeling method. The IC50 values were calculated using GraphPad Prism 7 software.
The antiproliferative activity of the compounds against KG-1 cells is shown in Table 2, where A represents IC50 < 1 nM, B represents 1 ≤ IC50 < 10 nM, C represents 10 nM ≤ IC50 < 100 nM, D represents 100 nM ≤ IC50 < 1000 nM, and E represents IC50 ≥ 1000 nM. Table 2. The antiproliferative activity of compounds against KG-1 cells

[1] = Metabolic stability in in vitro rat liver microsomes; settings: for half-life / microsomal CLint: rat
Description: 10 mM stock solutions of the test compounds in DMSO were prepared, diluted with acetonitrile and then with PBS, and vortexed, with the DMSO content controlled at 0.1%. The dilute working solutions (10 µL) were incubated with 65 µL of a liver microsome system (30 µL of 100 mM PBS, 25 µL of 20 mM MgCl2, and 10 µL of 5 mg/mL RLMs) and preheated at 37 °C for 5 min. 25 µL of 4 mM NADPH was added to start a reaction. Samples were taken at different time points (0 min, 5 min, 15 min, 30 min, 60 min, and 120 min), and an acetonitrile solution containing an internal standard was added to stop the reaction. After vortexing and centrifugation, the supernatants were collected and analyzed by LC-MS/MS, and the half-lives and clearance rates were calculated.

GSPT1 protein = biological target: T1, GSPT1 protein (Homo sapiens, UniProt P15170+Q96SW2); assay: Degradation of GSPT1 in KG-1 cells (Western blot); format: cell-based; set-up: percent GSPT1 degradation: dose or concentration left out as unconfirmed; settings: for percent GSPT1 degradation at 0.2 µM: compound concentration 200 nM
T1 construct: host or cells: KG-1 cells
T1 sequence (P15170 whole entry): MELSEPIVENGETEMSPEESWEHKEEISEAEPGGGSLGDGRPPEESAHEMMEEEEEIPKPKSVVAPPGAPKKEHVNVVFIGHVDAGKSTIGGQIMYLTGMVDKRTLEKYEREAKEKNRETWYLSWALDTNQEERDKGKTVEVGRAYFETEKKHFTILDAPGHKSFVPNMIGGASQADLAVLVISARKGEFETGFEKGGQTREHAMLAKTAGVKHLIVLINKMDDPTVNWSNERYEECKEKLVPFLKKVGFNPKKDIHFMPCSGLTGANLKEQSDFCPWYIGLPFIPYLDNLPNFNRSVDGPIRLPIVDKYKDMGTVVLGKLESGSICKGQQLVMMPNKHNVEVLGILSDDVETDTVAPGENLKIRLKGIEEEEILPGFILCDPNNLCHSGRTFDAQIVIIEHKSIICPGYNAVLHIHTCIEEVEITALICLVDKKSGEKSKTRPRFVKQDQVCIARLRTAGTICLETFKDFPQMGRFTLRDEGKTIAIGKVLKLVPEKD
T1 sequence (Q96SW2 whole entry): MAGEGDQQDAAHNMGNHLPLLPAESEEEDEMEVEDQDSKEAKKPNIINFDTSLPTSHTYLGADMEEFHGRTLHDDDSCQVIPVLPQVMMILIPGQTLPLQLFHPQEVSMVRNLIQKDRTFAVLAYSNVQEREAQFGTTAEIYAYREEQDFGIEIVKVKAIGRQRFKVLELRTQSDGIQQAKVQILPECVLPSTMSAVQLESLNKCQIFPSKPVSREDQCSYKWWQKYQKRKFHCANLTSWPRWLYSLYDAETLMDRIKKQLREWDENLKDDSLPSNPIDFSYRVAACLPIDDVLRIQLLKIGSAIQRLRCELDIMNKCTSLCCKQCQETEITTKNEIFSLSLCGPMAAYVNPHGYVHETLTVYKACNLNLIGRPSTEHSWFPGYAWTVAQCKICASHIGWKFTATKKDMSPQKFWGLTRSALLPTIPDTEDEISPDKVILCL
T1 sequence (Q16531 whole entry partner): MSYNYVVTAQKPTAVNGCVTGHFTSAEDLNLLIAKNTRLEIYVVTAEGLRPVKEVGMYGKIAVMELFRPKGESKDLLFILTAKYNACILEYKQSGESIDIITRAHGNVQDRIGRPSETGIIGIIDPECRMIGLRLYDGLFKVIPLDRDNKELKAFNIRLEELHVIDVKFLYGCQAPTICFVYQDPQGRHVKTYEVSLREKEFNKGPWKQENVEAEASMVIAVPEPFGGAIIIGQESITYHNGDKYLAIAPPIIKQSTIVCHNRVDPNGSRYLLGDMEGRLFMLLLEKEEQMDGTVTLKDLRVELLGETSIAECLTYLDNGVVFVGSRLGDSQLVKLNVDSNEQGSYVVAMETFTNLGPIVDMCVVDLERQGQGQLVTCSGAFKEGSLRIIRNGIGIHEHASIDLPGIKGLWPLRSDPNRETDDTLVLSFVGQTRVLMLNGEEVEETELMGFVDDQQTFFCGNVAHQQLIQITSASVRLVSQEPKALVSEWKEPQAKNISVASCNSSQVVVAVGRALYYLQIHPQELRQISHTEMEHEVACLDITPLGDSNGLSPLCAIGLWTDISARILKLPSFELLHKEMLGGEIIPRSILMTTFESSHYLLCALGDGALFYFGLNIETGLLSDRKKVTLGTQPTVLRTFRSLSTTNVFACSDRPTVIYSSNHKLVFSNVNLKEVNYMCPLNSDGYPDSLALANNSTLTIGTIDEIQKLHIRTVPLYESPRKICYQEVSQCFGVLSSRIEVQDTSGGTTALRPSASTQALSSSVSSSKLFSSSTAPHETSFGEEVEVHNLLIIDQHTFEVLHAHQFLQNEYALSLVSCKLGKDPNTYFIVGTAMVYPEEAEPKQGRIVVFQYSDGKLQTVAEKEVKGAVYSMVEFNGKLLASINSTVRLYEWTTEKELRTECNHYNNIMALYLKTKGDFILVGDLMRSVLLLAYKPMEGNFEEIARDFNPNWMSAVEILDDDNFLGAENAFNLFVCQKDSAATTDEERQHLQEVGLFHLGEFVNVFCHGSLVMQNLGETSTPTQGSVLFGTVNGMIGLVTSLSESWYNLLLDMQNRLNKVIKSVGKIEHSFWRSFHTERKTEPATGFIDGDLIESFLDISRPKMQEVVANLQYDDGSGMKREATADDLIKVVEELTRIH
Description: KG-1 cells (ATCC) were grown in an IMDM culture medium (containing 20% FBS). After centrifugation and counting, the cell concentration was adjusted. The cells were plated onto 6-well plates at 10^6 cells/well, with 1350 µL per well. 150 µL of DMSO and the test compounds of the present disclosure (compound concentration: 200 nM) were added. The plates were incubated in an incubator at 37 °C with 5% CO2 for 4 hours. The cells were centrifuged, and the culture medium was discarded. PBS was added to wash the cells and then discarded. Whole cell lysates were prepared using a protease inhibitor cocktail (100×, Fude Biological), a protein phosphatase inhibitor cocktail (100×, Fude Biological), SuperNuclease (Beyotime), and a high-intensity RIPA lysis buffer (Thermo Fisher) and placed on ice for 30 minutes. After centrifugation, the cell debris precipitates were discarded, and the whole cell lysate supernatants were collected and transferred to new centrifuge tubes. After a BCA protein assay, samples were prepared using a 5× loading buffer (Thermo Fisher). The samples were subjected to protein electrophoresis separation in a 4-20% precast gel (SDS-PAGE gel), transferred to a PVDF membrane, then blocked with 5% NFDM/TBST at room temperature for 1 hour, incubated overnight with primary antibodies at 4 °C, and incubated with a secondary antibody at room temperature for 2 hours the next day. Signals were detected using a MINICHEMITM imaging system.
Primary antibodies: • Anti-GSPT1: Abcam ab234433 • Anti-beta actin: Fude Biological FD0060
Secondary antibody: Anti-rabbit peroxidase-linked secondary antibody: Fude Biological FDG007
The degradation effects of the compounds on GSPT1 protein are shown in Table 1, where A represents a GSPT1 protein degradation percentage of no less than 80%, B represents a degradation percentage of less than 80% but no less than 50%, C represents a degradation percentage of less than 50% but no less than 25%, and D represents a degradation percentage of less than 25%. Table 1. The degradation of GSPT1 protein by compounds

[2] = system: human leukemia cells MV411; assay: In vivo pharmacodynamic study in MV411 acute myeloid leukemia xenograft mouse model; set-up: species or system BABL/c Nude mouse; settings: for weight loss in mice: once daily by oral gavage
Description: The human leukemia cells MV411 (Cell Bank, Chinese Academy of Sciences) used in this experiment were cultured in an IMDM culture medium supplemented with 10% FBS in an incubator containing CO2 at 37 °C. Before the cells were continuously sub-cultured to the tenth generation, MV411 cells in the logarithmic growth phase were used, and the cell concentration was adjusted to 1 × 10^8 cells/mL with a serum-free culture medium. Each BABL/c Nude mouse (Jiangsu GemPharmatech Co., Ltd., female, 4-6 weeks old, 14-16 g) was inoculated with 100 µL of the cell suspension by subcutaneous injection on the right dorsal side (near the axilla) under sterile conditions. When the mean tumor volume of the tumor-bearing mice reached approximately 100 mm^3, the mice were randomly divided into groups, with the tumor volume in each group being roughly the same. The day of grouping and administration was defined as day 0. The animals in each treatment group were given a compound once daily by oral gavage at 15 mg/kg, 30 mg/kg, or 60 mg/kg. The body weight and tumor volume of the animals were measured every other day.
Experimental indicator: The anti-tumor efficacy of the compounds was evaluated using the relative tumor growth inhibition rate (TGI). Tumor weight TGI (%) = {1 - [(final average tumor weight of experimental group)/(final average tumor weight of control group of tumor-bearing mice without administration)]} × 100%. Tumor volume TGI (%) = [1 - relative tumor volume of experimental group/relative tumor volume of control group of tumor-bearing mice without administration] × 100%.

[3] = In vivo pharmacokinetic study in rats; settings: rat; for AUC(0-inf) / AUC(0-t) / C0 / Vd / clearance / half-life / Cmax / Tmax: male, SD, plasma; for F: PO 10mg/kg; for exposure level relative to CC-90009: administered orally
Description: Sample collection and preparation: After SPF SD rats (male, 210-230 g, 42-48 days, RILD Liver) in a good growth state were dosed intravenously at 2 mg/kg and orally at 10 mg/kg, blood samples were collected via the orbit at different blood collection time points and transferred to centrifuge tubes containing an anticoagulant; the intravenous blood collection time points were 0.08 hours, 0.25 hours, 0.5 hours, 1 hour, 2 hours, 4 hours, 6 hours, 8 hours, and 24 hours, and the oral blood collection time points were 0.25 hours, 0.5 hours, 1 hour, 2 hours, 4 hours, 6 hours, 8 hours, and 24 hours. The blood samples were immediately centrifuged at 4 °C and 8000 rpm for 10 minutes, and the plasma was collected and stored in an ultra-low-temperature freezer at -80 °C until it was analyzed by LC-MS/MS. Pharmacokinetic data analysis: Pharmacokinetic parameters of the compounds were calculated using pharmacokinetic software in a non-compartmental model. The peak plasma concentration (Cmax) and the time to reach the peak plasma concentration (Tmax) were taken as observation values. Parameters such as the half-life T1/2, the areas under the plasma concentration-time curve AUClast and AUCinf, the apparent volume of distribution Vss, and the clearance rate CL were determined through regression analysis of the linear terminal portion of the logarithmic plasma concentration-time curve and the linear trapezoidal rule.

MV4-11 = assay: Antiproliferative activity against tumor cells (CCK8), MV4-11; format: cell-based; settings: Homo sapiens, MV4-11 cells, 72 hours
Description: (§1) U937, MOLM-13, and MV4-11 cells (ATCC) in the logarithmic growth phase were separately diluted in a culture medium and plated onto 96-well plates at 5000 cells/well, and the plates were incubated in an incubator at 37 °C with 5% CO2 for 24 hours. 10 mM stock solutions of the compounds in DMSO were prepared and diluted with the culture medium to set 9 concentration gradients. Three replicate wells were set for each concentration. After compound addition, the plates were incubated in an incubator at 37 °C with 5% CO2 for 72 hours. The cell proliferation was assessed using the CCK8 method. The cell growth inhibition IC50 values of the compounds were determined using an enzyme labeling method. The IC50 values were calculated using GraphPad Prism 7 software.
(§2) The antiproliferative activity of the compounds against the tumor cells is shown in Table 3, where A represents IC50 < 1 nM, B represents 1 ≤ IC50 < 10 nM, C represents 10 nM ≤ IC50 < 100 nM, D represents 100 nM ≤ IC50 < 1000 nM, and E represents IC50 ≥ 1000 nM. Table 3. The antiproliferative activity of compounds against tumor cells

MOLM-13 = assay: Antiproliferative activity against tumor cells (CCK8), MOLM-13; format: cell-based; settings: Homo sapiens, MOLM-13 cells, 72 hours
Description: as §1, §2

U937 = assay: Antiproliferative activity against tumor cells (CCK8), U937; format: cell-based; settings: Homo sapiens, U-937, 72 hours
Description: as §1, §2

percent GSPT1 degradation at 0.2 µM (GSPT1 protein; KG-1 cells, 4 hours) [%]	Compound	IC50 (KG-1 cells) [nM]	half-life [1] [h]	microsomal CLint [1] [µL/min/mg]	weight loss in mice [2]	AUC(0-inf) ([3]; iv, 2 mg/kg) [ng·h/mL]	AUC(0-t) ([3]; iv, 2 mg/kg) [ng·h/mL]	C0 ([3]; iv, 2 mg/kg) [ng/mL]	Vd ([3]; iv, 2 mg/kg) [L/kg]	clearance ([3]; iv, 2 mg/kg) [mL/min/kg]	half-life ([3]; iv, 2 mg/kg) [h]	AUC(0-inf) ([3]; po, 10 mg/kg) [ng·h/mL]	AUC(0-t) ([3]; po, 10 mg/kg) [ng·h/mL]	Cmax ([3]; po, 10 mg/kg) [ng/mL]	Tmax ([3]; po, 10 mg/kg) [h]	half-life ([3]; po, 10 mg/kg) [h]	F [3] [%]	exposure level relative to CC-90009 [3]	plasma drug exposure level relative to CC-90009 ([3]; intravenous injection)	IC50 (MV4-11) [nM]	also measured
> 80	O=C1CCC(N2Cc3c(ccc(CNC(=O)C4=Cc5cc(OC(F)(F)F)ccc5OC4)c3F)C2=O)C(=O)N1 (stereo not drawn) [Compound A-42, N-((2-(2,6-Dioxopiperidin-3-yl)-4-fluoro-1-oxoisoindolin-5-yl)methyl)-6-(trifluoromethoxy)-2H-chromene-3-carboxamide]	1 to 10	3.11	7.43	no significant weight loss	17300 ± 1470	17200 ± 1500	32100 ± 1550	0.14	1.9 ± 0.1	1.37 ± 0.04	7190	8380 ± 1280	2810 ± 1530	0.66 ± 0.28	1.71	9.8±1.5	four times	fourteen times	–	in vitro rat liver microsome metabolic half-life relative to CC-90009 ([1]; ratio to the clinical drug CC-90009): more than 2 times; tumor volume TGI ([2]; 60 mg/kg once daily by oral gavage): 100%
< 25	O=C1CCC(N2Cc3cc(CNC(=O)C4CCc5ccccc5C4)ccc3C2=O)C(=O)N1 [Compound D-1, N-((2-(2,6-Dioxopiperidin-3-yl)-1-oxoisoindolin-5-yl)methyl)-1,2,3,4-tetrahydronaphthalene-2-carboxamide]	≥ 1000	–	–	–	–	–	–	–	–	–	–	–	–	–	–	–	–	–	≥ 1000	IC50 (MOLM-13): ≥ 1000 nM; IC50 (U937): ≥ 1000 nM
–	O=C1CCC(N2Cc3cc(CNC(=O)C4=Cc5cc(OC(F)(F)F)ccc5OC4)ccc3C2=O)C(=O)N1 (stereo not drawn) [Compound A-10, N-((2-(2,6-Dioxopiperidin-3-yl)-1-oxoisoindolin-5-yl)methyl)-6-trifluoromethoxy-2H-chromene-3-carboxamide]	10 to 100	2.77	8.35	no significant weight loss	4350 ± 1200	4310 ± 1200	16700 ± 4330	0.42 ± 0.13	8.1 ± 2.5	1.53 ± 0.29	4980 ± 2740	4950 ± 2770	3460 ± 1540	0.33 ± 0.14	3.03 ± 0.63	22.9±12.6	nearly three times	nearly four times	10 to 100	percent GSPT1 degradation (GSPT1 protein; KG-1, 4 h, read-out: GSPT1 degradation): > 80%; degradation of GSPT1 in KG-1 and MV4-11 cells (GSPT1 protein; KG-1 and MV4-11 cells, FIGs. 1 and 2): concentration-dependent and time-dependent; percentage of degradation of GSPT1 protein (GSPT1 protein; KG-1 cells, 200 nM, 4 hours): higher than 80%; IC50 (MOLM-13): 1 to 10 nM; clearance rate relative to CC-90009 ([3]; intravenous injection): one third; IC50 (U937): 1 to 10 nM
